Measurements reported in patent publication US11324749B2, “Combination therapy for treatment of hematological diseases” (Incyte Corporation, priority 2018, dated 2022).

Tests used:
[1] = target: human JAK1 (a.a. 837-1142) (Homo sapiens, UniProt P23458); assay: In vitro JAK kinase assay (HTRF), JAK1; assay type: biochemical; settings: 1 mM ATP
Protocol: (§1) The catalytic activity of JAK1, JAK2, or JAK3 was assayed by measuring the phosphorylation of a biotinylated peptide. The phosphorylated peptide was detected by homogenous time resolved fluorescence (HTRF). […] Reactions are carried out at room temperature for 1 hour and then stopped with 20 μL 45 mM EDTA, 300 nM SA-APC, 6 nM Eu-Py20 in assay buffer (Perkin Elmer, Boston, Mass.). Binding to the Europium labeled antibody takes place for 40 minutes and HTRF signal was measured on a Fusion plate reader (Perkin Elmer, Boston, Mass.).

[2] = tested on: Human multiple myeloma cell lines KMS12BM, OPM2, MM1.R, MM1.S and KMS11; assay: Cell Titer Glo viability of multiple myeloma cell lines; assay type: cell-based; settings: 72 hours, compared to DMSO treated controls, all five cell lines
Protocol: Human multiple myeloma cell lines KMS12BM, OPM2 (DSMZ), MM1.R, MM1.S (ATCC) and KMS11 (JCRB) were seeded into white 96 well plates (Greiner Bio One) at 10^4 cells in 100 μL media. Combinations of dexamethasone (Sigma), lenalidomide (Chemscene), itacitinib, or DMSO control were then added. Doses were selected based on pilot studies designed to find sensitivities of each cell line to these agents. Each dose combination was performed in triplicate. After 72 hours, Cell Titer Glo (Promega) assays were performed as per manufacturer protocol to assess cell viability.
Statistical analyses were performed using Prism Graphpad software. P values were calculated from unpaired t tests—*p<0.05; **p<0.01; ****p<0.0001).

[3] = target: human JAK2 (a.a. 828-1132) (Homo sapiens (Human), UniProt O60674); assay: In vitro JAK kinase assay (HTRF), JAK2 versus JAK1; assay type: biochemical; settings: IC50 ratio, 1 mM ATP
human JAK2 (a.a. 828-1132), sequence (O60674 828-1132): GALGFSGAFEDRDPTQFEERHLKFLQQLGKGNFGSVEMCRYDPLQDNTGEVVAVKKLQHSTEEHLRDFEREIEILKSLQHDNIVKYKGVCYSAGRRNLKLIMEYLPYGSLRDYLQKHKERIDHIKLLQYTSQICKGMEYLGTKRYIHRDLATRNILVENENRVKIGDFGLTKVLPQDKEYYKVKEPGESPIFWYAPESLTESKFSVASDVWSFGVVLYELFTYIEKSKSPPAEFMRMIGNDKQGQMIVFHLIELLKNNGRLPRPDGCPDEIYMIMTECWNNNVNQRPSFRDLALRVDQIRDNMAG
Protocol: as §1

IC50 [1]: < 10 nM
JAK2/JAK1 [3]: >10
SMILES: N#CCC1(n2cc(-c3ncnc4[nH]ccc34)cn2)CN(C2CCN(C(=O)c3ccnc(C(F)(F)F)c3F)CC2)C1 [Compound 1, {1-{1-[3-Fluoro-2-(trifluoromethyl)isonicotinoyl]piperidin-4-yl}-3-[4-(7H-pyrrolo[2,3-d]pyrimidin-4-yl)-1H-pyrazol-1-yl]azetidin-3-yl}acetonitrile]
cell viability [2]: no change in viability
